# Source: US20210393722A1, “COMPOSITION FOR IMPROVING SKIN BARRIER DAMAGE AND/OR ALLEVIATING SKIN INFLAMMATION, CONTAINING 3,5-DICAFFEOYLQUINIC ACID AS ACTIVE INGREDIENT” (KOREA UNIVERSITY RESEARCH AND BUSINESS FOUNDATION, priority 2018, published 2021)
# Legend:
# Assay type in all cases: cell-based, human
# HaCaT cells [1] = test: Western blot of protein expression in HaCaT cells treated with 3,5-DCQA (Example 7); settings: 1 μM 3,5-DCQA
# Experimental: (§1) HaCaT cells (human keratinocytes) were cultured in Dulbecco's modified Eagle's medium (DMEM) containing 10% fetal bovine serum (FBS) and 1% antibiotic-antimycotic solution at 37° C. in a 5% CO2 incubator. The cell culture medium was replaced with fresh DMEM every 48-72 hours. HaCaT cells within 5-17 passages were plated at a density of 1×10^4 cells per well in an 8-well chamber slide, or at a density of 1×10^6 cells per well in a 6-well culture plate in DMEM containing […] and 1% antibiotic-antimycotic solution. The cells were cultured for 24-48 hours in a 5% CO2 incubator at 37° C. Then, the medium was replaced with DMEM containing 1% fetal bovine serum. Thereafter, the cells were treated for 24 hours with DNCB (5 μM, Sigma-Aldrich, Louis, Mo., USA) or SDS (30 μM, Sigma-Aldrich) along with the AG extract (50 μg) and the PPARδ antagonist GSK0660 (Sigma-Aldrich). In addition, the cells were treated with 1 μM 3,5-dicaffeoylquinic acid (3,5-DCQA). The HaCaT cells were donated by Dr. Sang-Wook Son. All the reagents for cell culture were purchased from Welgene Inc. (Daegu, Korea). The concentrations of all the reagents were final concentrations.
# In order to measure the protein expression of TRPV4, PPARδ, AMPK and SPTLC2 in HaCaT cells treated with 3,5-dicaffeoylquinic acid, western blot was performed after treating with the condition of Example 2.
# HaCaT cells [2] = test: Immunohistochemical staining of HaCaT cells treated with 3,5-DCQA (Example 8); settings: 1 μM 3,5-DCQA
# Experimental: as §1
# In order to measure the protein expression of keratin, involucrin, β-defensin and TNFα in HaCaT cells treated with 3,5-dicaffeoylquinic acid, immunohistochemical staining was performed after treating with the condition of Example 2.
# The protein extracts were electrophoresed on 10% polyacrylamide gel and blotted to a nitrocellulose membrane. The nitrocellulose membrane was bound with primary and secondary antibodies sequentially, and then chemiluminescence was exposed to an X-ray film. The density for bands on the X-ray film was analyzed with the Image J program. The HaCaT cells fixed on a slide chamber were immunohistochemically stained with antibodies for keratin, involucrin, defensin and TNFα. Images were taken at 200× magnification, and the densities for the images were analyzed with the Image J program. The results were expressed as mean±SEM. The values were statistically analyzed by unpaired t-test. All the experiments were repeated three times.
# HaCaT cells [3] = test: Immunohistochemical staining of HaCaT cells treated with antagonists for TRPV4 and AMPK (Example 5); settings: HaCaT treated with antagonist; compared to the control group
# Experimental: To investigate the effect of TRPV4 and AMPK on the expression of biomarkers related to skin barrier constituents, defense and inflammation, the protein expression for keratin, involucrin, β-defensin and TNFα was evaluated by immunohistochemical staining of HaCaT cells treated with antagonists for TRPV4 and AMPK.
# (§2) Western blot was conducted for TRPV4, AMPK and PPARδ in HaCaT cells treated with antagonists for TRPV4, PPARδ and AMPK. The HaCaT cells fixed on a slide chamber were immunohistochemically stained with antibodies for keratin, involucrin, defensin and TNFα. Images were taken at 200× magnification, and the densities for the images were analyzed with the Image J program. The protein extracts were electrophoresed on 10% polyacrylamide gel and blotted to a nitrocellulose membrane. The nitrocellulose membrane was bound with primary and secondary antibodies sequentially, and then chemiluminescence was exposed to an X-ray film. The density for bands on the X-ray film was analyzed with the Image J program. The results were expressed as mean±SEM. The values were statistically analyzed by unpaired t-test. All the experiments were repeated three times.
# HaCaT cells [4] = test: Western blot for TRPV4, PPARδ and AMPK in HaCaT cells treated with antagonists for TRPV4, PPARδ or AMPK (Example 6); settings: HaCaT treated with antagonist
# Experimental: as §2
# To determine the priority of major regulators which are TRPV4, PPARδ and AMPK, the protein expression level of TRPV4, PPARδ and AMPK in HaCaT cells treated with antagonists for TRPV4, PPARδ or AMPK was measured by western blot.
# HaCaT cells [5] = test: Western blot of protein expression in HaCaT cells treated with DNCB or SDS with AG extract (Example 3); settings: GSK0660 along with the AG extract
# Experimental: as §1
# For evaluation of the protein expression levels of PPARδ, AMPK and SPTLC2 in the HaCaT cells treated with SDS or DNCB together with AG, western blot was conducted after treating with the conditions of Example 2.
# The concentration of the proteins in the sample was estimated by the Bradford method. 10 μg of the extracted proteins were loaded onto 10% sodium dodecyl sulfate (SDS)-polyacrylamide gel, and protein blotting on nitrocellulose membrane was performed for 90 minutes. The membrane was blocked overnight with 5% skim milk and washed 3 times with TBS-T for 10 minutes. Primary antibodies were allowed to bind to the membrane at room temperature for 2 hours. […] Images were processed manually with Kodak GBX developer and fixer reagents (Carestream Health, Inc., Rochester, N.Y., USA) and were analyzed using the Image J program. β-Actin was used as a internal control group for normalization of the loaded proteins.
# HaCaT cells [6] = test: Immunocytochemistry of keratin, involucrin, β-defensin 1 and TNFα in HaCaT cells treated with DNCB or SDS with AG extract (Example 4); settings: AG extract plus GSK0660
# Experimental: as §1
# In order to evaluate the expression of β-defensin 1, a representative β-defensin, together with skin barrier constituents such as keratin and involucrin and the inflammatory cytokine TNFα, immunocytochemistry (ICC) was conducted after treating with the condition of Example 2.
# Cells in a chamber slide were fixed with ice-cold methanol for 15 minutes. The fixed cells were treated with a 0.3% hydrogen peroxide (H2O2) solution containing 0.3% normal horse serum for 5 minutes to remove peroxidase activity in the cells. After washing with PBS for 5 minutes, the cells were incubated with diluted normal blocking serum for 20 minutes, followed by treatment with diluted primary antibodies for 1 hour. The primary antibodies for involucrin and TNFα were purchased from Novus (Littleton, Colo. 80120, USA). The primary antibody for β-defensin 1 was purchased from Santa Cruz Biotechnology, Inc. (Dallas, Tex., USA), and the primary antibody for pan-keratin was purchased from Abcam (Cambridge, UK). After washing with PBS, the cells were treated with secondary antibodies for 30 minutes. After washing with PBS, the cells were treated with a premixed Vectastain ABC reagent solution for 30 minutes. […]
# The protein extracts were electrophoresed on 10% polyacrylamide gel and blotted to a nitrocellulose membrane. […] The density for bands on the X-ray film was analyzed with the Image J program. […] Images were taken at 200× magnification, and the densities for the images were analyzed with the Image J program. The results were expressed as mean±SEM. The values were statistically analyzed by unpaired t-test. […]
structure (smiles),measurement,setting,value
"O=C(/C=C/c1ccc(O)c(O)c1)O[C@@H]1C[C@](O)(C(=O)O)C[C@@H](OC(=O)/C=C/c2ccc(O)c(O)c2)[C@H]1O [3,5-DCQA, 3,5-dicaffeoylquinic acid]",protein expression of AMPK,HaCaT cells [1],increased
same,protein expression of PPARδ,HaCaT cells [1],increased
same,protein expression of SPTLC2,HaCaT cells [1],increased
same,expression of TNFα,HaCaT cells [2],decreased
same,protein expression of involucrin,HaCaT cells [2],increased
same,protein expression of keratin,HaCaT cells [2],increased
same,protein expression of β-defensin 1,HaCaT cells [2],increased
c1cc(-c2cnn3cc(-c4ccc(OCCN5CCCCC5)cc4)cnc23)ccn1 [compound C],protein expression of TNFα,HaCaT cells [3],increased
same,protein expression of involucrin,HaCaT cells [3],decreased significantly
same,protein expression of keratin,HaCaT cells [3],decreased significantly
same,protein expression of β-defensin 1,HaCaT cells [3],decreased significantly
same,protein expression level for PPARδ,HaCaT cells [4],did not affect
same,protein expression level for TRPV4,HaCaT cells [4],did not affect
same,protein expression level for p-AMPK,HaCaT cells [4],decreased
COC(=O)c1sccc1S(=O)(=O)Nc1ccc(Nc2ccccc2)cc1OC [GSK0660],AG extract-induced increase in the expression of P-AMPK,HaCaT cells [5],reduced
same,AG extract-induced increase in the expression of PPARδ,HaCaT cells [5],reduced
same,AG extract-induced increase in the expression of SPTLC2,HaCaT cells [5],reduced
same,AG extract-increased involucrin protein expression,HaCaT cells [6],offset
same,AG extract-increased keratin protein expression,HaCaT cells [6],offset
same,AG extract-increased β-defensin 1 protein expression,HaCaT cells [6],offset
same,effect of the AG extract on TNFα expression,HaCaT cells [6],offset
same,protein expression level for PPARδ,HaCaT cells [4],lowered
same,protein expression level for TRPV4,HaCaT cells [4],did not change
same,protein expression level for p-AMPK,HaCaT cells [4],lowered
